Converted amounts (≈) assume the structure as drawn. Like-named read-outs stand apart in the source and are kept apart here.
Assays:
[1] = test system: Saccharomyces cerevisiae ATCC 9763; assay: MIC, two-fold agar dilution, S. cerevisiae ATCC 9763; type: cell-based; conditions: ATCC9763, YMA pH 7.0, 28° C., 40 hours
Procedure: (§1) Minimum inhibitory concentrations (MICs) of nine 4'-N-substituted pradimicin derivatives were determined by two-fold agar dilution method on phosphate-buffered yeast morphology agar (YMA, pH 7.0, Difco Laboratories). A 5-μl of fungal cell suspension containing 2×10^6 cells/ml (2×10^7 cells/ml for Trichophyton mentagrophytes) were spotted on the surface of the agar plates containing test compound. MICs were recorded after 40-hour incubation at 28° C. except for T. mentagrophytes, which required 60-hour incubation to produce visually evaluable growth on the drug-free control plates and were defined as the lowest antibiotic concentrations showing no growth or less than five discrete colonies per spot.
(§2) Medium: yeast morphology agar + 1/15 M phosphate buffer (pH 7.0)
(§3) Incubation conditions: 28° C., 40 hours (C. albicans ATCC 38247 & T.
(§4) Medium: Yeast morphology agar + 1/15 phosphate buffer (pH 7.0).

[2] = test system: Candida albicans IAM 4888; assay: MIC, two-fold agar dilution, C. albicans IAM 4888; type: cell-based; conditions: IAM4888, YMA pH 7.0, 28° C., 40 hours
Procedure: as §1, §2, §3, §4

Candida albicans A9540 [3] = assay: MIC, two-fold agar dilution, C. albicans A9540; type: cell-based
Procedure: as §1, §2, §3, §4

[4] = test system: Candida albicans ATCC 38247; assay: MIC, two-fold agar dilution, C. albicans ATCC 38247; type: cell-based; conditions: ATCC38247, YMA pH 7.0, 28° C., 60 hours (table footnote)
Procedure: as §1, §2, §3
(§5) mentagrophytes #4329: 28° C., 60 hours).
as §4

[5] = test system: Candida albicans ATCC 32354; assay: MIC, two-fold agar dilution, C. albicans ATCC 32354; type: cell-based; conditions: ATCC32354, YMA pH 7.0, 28° C., 40 hours
Procedure: as §1, §2, §3, §4

Candida albicans 83-2-14 = assay: MIC, two-fold agar dilution, C. albicans 83-2-14; type: cell-based; conditions: 83214, YMA pH 7.0, 28° C., 40 hours
Procedure: as §1, §2, §3, §4

Candida tropicalis 85-8 = assay: MIC, two-fold agar dilution, C. tropicalis 85-8; type: cell-based; conditions: 858, YMA pH 7.0, 28° C., 40 hours
Procedure: as §1, §2, §3, §4

[6] = test system: Candida tropicalis IFO 10241; assay: MIC, two-fold agar dilution, C. tropicalis IFO 10241; type: cell-based; conditions: IFO10241, YMA pH 7.0, 28° C., 40 hours
Procedure: as §1, §2, §3, §4

[7] = test system: Cryptococcus neoformans D49; assay: MIC, two-fold agar dilution, C. neoformans D49; type: cell-based; conditions: YMA pH 7.0, 28° C., 40 hours
Procedure: as §1, §2, §3, §4

[8] = test system: Cryptococcus neoformans IAM 4514; assay: MIC, two-fold agar dilution, C. neoformans IAM 4514; type: cell-based; conditions: IAM4514
Procedure: as §1, §2, §3, §4

[9] = test system: Aspergillus fumigatus IAM 2034; assay: MIC, two-fold agar dilution, A. fumigatus IAM 2034; type: cell-based; conditions: IAM2034
Procedure: as §1, §2, §3, §4

[10] = test system: Trichophyton mentagrophytes #4329; assay: MIC, two-fold agar dilution, T. mentagrophytes #4329; type: cell-based
Procedure: as §1, §2, §3, §5, §4

Candida albicans A9540 [11] = assay: animal or person; type: in vivo, male ICR mice infected with Candida albicans A9540; conditions: Candida albicans; for ED50: Table 2, 95% confidence limits in parentheses, read-out: PD50 (50% protection dose)
Procedure: (§6) The in vivo therapeutic efficacies of seven 4'-N-substituted pradimicin derivatives, KHM-1, KHM-2, KHM-3, KHM-4, KHM-5, KHM-6 and KHM-7 were evaluated in the mouse infected with Candida albicans A9540 and Aspergillus fumigatusIAM 2034. Groups of five specific-pathogen-free male ICR mice weighing 20-25 g at each dose level were intravenously infected with approximately 10 times the 50% lethal dose of C. albicans A9540 (1×10^6 cells/mouse) or A. fumigatus IAM 2034 (1×10^7 cells/mouse). Immediately after the fungal infection, test compounds dissolved with 10% DMSO in distilled water were intravenously given to the mouse at the dosed volume of 0.1 ml/10 g of body weight. […] Untreated control animals died 7 to 13 days post-infection.

[12] = test system: Aspergillus fumigatus IAM 2034; assay: Therapeutic efficacy in Aspergillus fumigatus systemic infection in mice; type: in vivo, male ICR mice infected with Aspergillus fumigatus IAM 2034; conditions: IAM2034, 480 h; for responders at 6.3 mg/kg: 6.3 mg/kg iv; for responders at 6.3 mg/kg / responders at 12.5 mg/kg / responders at 25 mg/kg / responders at 50 mg/kg: 20th day post-infection, read-out: S/T (No. of survivors/tested) (converted); for responders at 12.5 mg/kg: 12.5 mg/kg iv; for responders at 25 mg/kg: 25 mg/kg iv; for responders at 50 mg/kg: 50 mg/kg iv
Procedure: as §6

[13] = Water solubility at neutral pH in PBS containing Ca^2+/Mg^2+; type: physicochemical; conditions: pbs with ca2+/mg2+; Table 3; water-solubility at neutral pH in phosphate buffered saline containing Ca^2+/Mg^2+
Procedure: The compounds of the invention have good water solubility. Typically, the water solubility is greater than 10 mg/ml when measured at neutral pH in PBS containing Ca^2+ /Mg^2+, preferably greater than 20 mg/ml.
^2) Water-solubility at neutral pH in phosphate buffered saline
containing Ca^2+ /Mg^2+.

[14] = Candida albicans A9540, YMA pH 7.0, 28° C., 40 hours, read-out: MIC
[15] = Table 3, Candida albicans A9540, YMA, read-out: MIC Ca-4
[16] = Cryptococcus neoformans IAM 4514, YMA pH 7.0, 28° C., 40 hours, read-out: MIC
[17] = Table 3, Cryptococcus neoformans IAM 4514, YMA, read-out: MIC Cn-2
[18] = Aspergillus fumigatus IAM 2034, YMA pH 7.0, 28° C., 40 hours, read-out: MIC
[19] = Table 3, Aspergillus fumigatus IAM 2034, YMA, read-out: MIC Af-3
[20] = Table 3, Trichophyton mentagrophytes #4329, YMA, read-out: MIC TM-4
[21] = Trichophyton mentagrophytes #4329, YMA pH 7.0, 28° C., 60 hours, read-out: MIC
[22] = A9540, 480 h, C. albicans, mice, 6.3 mg/kg iv, 20th day post-infection, read-out: S/T (No. of survivors/tested) (converted)
[23] = A9540, 480 h, C. albicans, mice, 12.5 mg/kg iv, 20th day post-infection, read-out: S/T (No. of survivors/tested) (converted)
[24] = A9540, 480 h, C. albicans, mice, 25 mg/kg iv, 20th day post-infection, read-out: S/T (No. of survivors/tested) (converted)
[25] = A9540, 480 h, C. albicans, mice, 50 mg/kg iv, 20th day post-infection, read-out: S/T (No. of survivors/tested) (converted)
[26] = A9540, 480 h, C. albicans, mice, iv
[27] = Aspergillus fumigatus, A. fumigatus, mice
[28] = Aspergillus fumigatus, Table 2, A. fumigatus, mice, iv, 95% confidence limits in parentheses, read-out: PD50 (50% protection dose)
[29] = Table 3, Aspergillus fumigatus IAM 2034, iv, read-out: PD50 (mice) Af-3
[30] = A9540, in Mus musculus, iv, 480 h, read-out: S/T (No. of survivors/tested)

Compound | MIC [1] [µg/mL] | MIC [2] [µg/mL] | MIC (Candida albicans A9540 [3]; [14]) [µg/mL] | MIC (Candida albicans A9540 [3]; [15]) [µg/mL] | MIC [4] [µg/mL] | MIC [5] [µg/mL] | MIC (Candida albicans 83-2-14) [µg/mL] | MIC (Candida tropicalis 85-8) [µg/mL] | MIC [6] [µg/mL] | MIC [7] [µg/mL] | MIC [8, 16] [µg/mL] | MIC [8, 17] [µg/mL] | MIC [9, 18] [µg/mL] | MIC [9, 19] [µg/mL] | MIC [10, 20] [µg/mL] | MIC [10, 21] [µg/mL] | ED50 (Candida albicans A9540 [11]; [26]) [mg/kg] | responders at 6.3 mg/kg [12, 27] [%] | responders at 12.5 mg/kg [12, 27] [%] | responders at 25 mg/kg [12, 27] [%] | further results
CN[C@@H]1[C@H](O[C@@H]2OC[C@@H](O)[C@H](O)[C@H]2O)[C@@H](O)[C@H](O[C@H]2c3cc(C)c(C(=O)N[C@H](C)C(=O)O)c(O)c3-c3c(cc4c(c3O)C(=O)c3cc(OC)cc(O)c3C4=O)[C@@H]2O)O[C@@H]1C [Pradimicin A, reference compound] | 6.3 (≈ 7.49 µM) | 6.3 (≈ 7.49 µM) | 12.5 (≈ 14.9 µM) | 12.5 (≈ 14.9 µM) | 3.1 (≈ 3.69 µM) | 3.1 (≈ 3.69 µM) | > 100 | > 100 | > 100 | 1.6 (≈ 1.9 µM) | 1.6 (≈ 1.9 µM) | 1.6 (≈ 1.9 µM) | 1.6 (≈ 1.9 µM) | 0.8 (≈ 0.951 µM) | 3.1 (≈ 3.69 µM) | 3.1 (≈ 3.69 µM) | 10 | 0 | 20 | 60 | responders at 6.3 mg/kg (Candida albicans A9540 [11]; [22]): 0%; responders at 12.5 mg/kg (Candida albicans A9540 [11]; [23]): 80%; responders at 25 mg/kg (Candida albicans A9540 [11]; [24]): 100%; responders at 50 mg/kg (Candida albicans A9540 [11]; [25]): 100%; responders at 50 mg/kg [12, 27]: 100%; ED50 [12, 28]: 23 mg/kg; solubility [13]: 0.02 mg/mL (≈ 23.8 µM)
COc1cc(O)c2c(c1)C(=O)c1c(cc3c(c1O)-c1c(cc(C)c(C(=O)N[C@H](CO)C(=O)O)c1O)[C@H](O[C@@H]1O[C@H](C)[C@H](NC#N)[C@H](O[C@@H]4OC[C@@H](O)[C@H](O)[C@H]4O)[C@H]1O)[C@H]3O)C2=O [KHM-4, 4'-N-Cyanopradimicin FA2] | 3.1 (≈ 3.57 µM) | 6.3 (≈ 7.26 µM) | 6.3 (≈ 7.26 µM) | 6.3 (≈ 7.26 µM) | 3.1 (≈ 3.57 µM) | 3.1 (≈ 3.57 µM) | 6.3 (≈ 7.26 µM) | 12.5 (≈ 14.4 µM) | 12.5 (≈ 14.4 µM) | 6.3 (≈ 7.26 µM) | 3.1 (≈ 3.57 µM) | 3.1 (≈ 3.57 µM) | 6.3 (≈ 7.26 µM) | 6.3 (≈ 7.26 µM) | 12.5 (≈ 14.4 µM) | 12.5 (≈ 14.4 µM) | 20 | 0 | 0 | 0 | responders at 6.3 mg/kg (Candida albicans A9540 [11]; [22]): 0%; responders at 12.5 mg/kg (Candida albicans A9540 [11]; [23]): 20%; responders at 25 mg/kg (Candida albicans A9540 [11]; [24]): 60%; responders at 50 mg/kg (Candida albicans A9540 [11]; [25]): 80%; responders at 50 mg/kg [12, 27]: 0%; ED50 [12, 28]: > 50 mg/kg; ED50 [12, 29]: > 50 mg/kg; solubility [13]: > 20 mg/mL
COc1cc(O)c2c(c1)C(=O)c1c(cc3c(c1O)-c1c(cc(C)c(C(=O)N[C@H](C)C(=O)O)c1O)[C@H](O[C@@H]1O[C@H](C)[C@H](NC(=N)N[N+](=O)[O-])[C@H](O[C@@H]4OC[C@@H](O)[C@H](O)[C@H]4O)[C@H]1O)[C@H]3O)C2=O [KHM-7, 4'-Nitroquanidinopradimicin C] | 3.1 (≈ 3.39 µM) | 3.1 (≈ 3.39 µM) | 3.1 (≈ 3.39 µM) | 3.1 (≈ 3.39 µM) | 1.6 (≈ 1.75 µM) | 3.1 (≈ 3.39 µM) | 6.3 (≈ 6.89 µM) | 12.5 (≈ 13.7 µM) | 12.5 (≈ 13.7 µM) | 3.1 (≈ 3.39 µM) | 1.6 (≈ 1.75 µM) | 1.6 (≈ 1.75 µM) | 3.1 (≈ 3.39 µM) | 3.1 (≈ 3.39 µM) | 3.1 (≈ 3.39 µM) | 3.1 (≈ 3.39 µM) | 12 | 20 | 40 | 0 | responders at 6.3 mg/kg (Candida albicans A9540 [11]; [30]): 40%; responders at 12.5 mg/kg (Candida albicans A9540 [11]; [30]): 60%; responders at 25 mg/kg (Candida albicans A9540 [11]; [30]): 60%; responders at 50 mg/kg (Candida albicans A9540 [11]; [30]): 80%; responders at 50 mg/kg [12, 27]: 20%; ED50 [12, 28]: > 50 mg/kg; ED50 [12, 29]: > 50 mg/kg; solubility [13]: > 20 mg/mL
